Experimental data: ChEMBL document CHEMBL1132596, “Non-peptide corticotropin-releasing hormone antagonists: syntheses and structure-activity relationships of 2-anilinopyrimidines and -triazines” (J Med Chem, 1999)
Where “and” joins values, the source holds several entries; their conditions need not be identical. Identical values can stand only once.

How the values were obtained:
[1] = molecular target: T1, Corticotropin-releasing factor receptor 1 (Homo sapiens, UniProt P34998); test: Binding affinity for human recombinant corticotropin releasing factor receptor 1
T1 sequence (P34998 whole entry): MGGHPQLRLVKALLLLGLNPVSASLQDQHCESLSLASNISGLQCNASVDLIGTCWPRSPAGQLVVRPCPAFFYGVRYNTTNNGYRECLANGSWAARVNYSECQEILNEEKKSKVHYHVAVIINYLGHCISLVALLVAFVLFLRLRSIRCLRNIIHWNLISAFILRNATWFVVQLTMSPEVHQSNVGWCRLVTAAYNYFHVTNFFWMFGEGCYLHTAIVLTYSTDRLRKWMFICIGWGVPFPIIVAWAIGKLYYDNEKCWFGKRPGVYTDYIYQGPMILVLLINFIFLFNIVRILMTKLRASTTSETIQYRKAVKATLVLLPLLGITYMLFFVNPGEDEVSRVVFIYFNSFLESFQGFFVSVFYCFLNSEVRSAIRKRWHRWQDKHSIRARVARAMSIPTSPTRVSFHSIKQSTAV

[2] = molecular target: T2, Corticotropin-releasing factor receptor 1 (Rattus norvegicus, UniProt P35353); test: Binding affinity was measured on rat Corticotropin releasing factor receptor 1
T2 sequence (P35353 whole entry): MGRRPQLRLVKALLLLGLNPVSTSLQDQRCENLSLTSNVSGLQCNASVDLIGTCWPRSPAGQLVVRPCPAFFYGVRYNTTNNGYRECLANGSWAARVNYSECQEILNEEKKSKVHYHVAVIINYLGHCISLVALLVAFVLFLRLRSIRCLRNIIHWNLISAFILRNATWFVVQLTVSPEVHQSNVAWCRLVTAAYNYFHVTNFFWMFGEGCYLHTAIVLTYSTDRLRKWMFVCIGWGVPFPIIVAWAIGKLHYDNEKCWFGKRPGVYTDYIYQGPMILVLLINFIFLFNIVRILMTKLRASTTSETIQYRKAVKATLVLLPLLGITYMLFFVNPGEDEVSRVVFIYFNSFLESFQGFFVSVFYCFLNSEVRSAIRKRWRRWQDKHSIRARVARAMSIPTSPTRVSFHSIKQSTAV

| Ki [1] | Ki [2] [nM] | Compound |
| --- | --- | --- |
| 23 nM | – | CCCCN(CC)c1nc(C)nc(N(CC)c2c(C)cc(C)cc2C)n1 |
| 27 nM | – | CCN(CC)c1cc(C)nc(N(CC)c2ccc(N(C)C)cc2Br)n1 |
| 14 nM | – | CCCCN(CC)c1cc(C)nc(N(CC)c2ccc(I)cc2Br)n1 |
| 26 nM | – | CCN(c1nc(C)cc(C)n1)c1c(Br)cc(C(C)C)cc1OC |
| 41 nM | – | CCC(CC)Nc1nc(C)nc(N(CC)c2ccc(C(C)C)cc2Br)n1 |
| 26 nM | – | CCN(CC)c1cc(C)nc(N(CC)c2c(Br)cc(C(C)C)cc2SC)n1 |
| 20 nM | – | CCN(CC)c1nc(C)nc(N(CC)c2ccc(N(C)C)cc2C(F)(F)F)n1 |
| 6 nM | – | CCCCN(CC#N)c1nc(C)nc(N(CC)c2ccc(N(C)C)cc2C(F)(F)F)n1 |
| – | 187 | CCc1ccc(N(C)c2nc(C)cc(C)n2)c(Br)c1 |
| 54 nM | – | CCN(c1nc(C)cc(C)n1)c1ccc(N(C)C)cc1C |
| – | 38 | CCN(c1nc(C)cc(C)n1)c1ccc(C(C)C)cc1I |
| 14 nM | – | CCN(c1nc(C)cc(N(CCOC)Cc2ccccc2)n1)c1ccc(C(C)C)cc1Br |
| 24 nM | – | CCN(CC)c1cc(C)nc(N(CC)c2c(Cl)cc(Br)cc2Cl)n1 |
| 5 nM | – | C=CCN(c1nc(C)nc(N(CC)c2ccc(C(C)C)cc2Br)n1)C1CC1 |
| 5 nM | – | CCCCN(CC)c1nc(C)nc(N(CC)c2ccc(C(C)C)cc2Br)n1 |
| 28 nM | – | CCN(CC)c1cc(C)nc(N(CC)c2c(Br)cc(C(C)=O)cc2OC)n1 |
| > 1000 nM | – | CCCCN(Cc1nn[nH]n1)c1cc(C)nc(N(CC)c2ccc(C(C)C)cc2Br)n1 |
| 31 nM | – | CCN(CC)c1cc(C)nc(N(CC)c2c(Br)cc(Br)cc2OC)n1 |
| 25 nM | – | CCN(c1nc(C)nc(N(CCOC)CC2CC2)n1)c1c(C)cc(C)cc1C |

| Ki [1] | Ki [2] [nM] | Compound |
| --- | --- | --- |
| 13 nM | – | CCCCN(CCOC)c1nc(C)nc(N(CC)c2c(C)cc(C)cc2C)n1 |
| 22 nM and 30 nM | – | CCN(CC)c1cc(C)nc(N(CC)c2ccc(C(C)C)cc2Br)n1 |
| 5 nM | – | CCN(c1nc(C)cc(C)n1)c1c(Br)cc(N(C)C)cc1OC |
| 33 nM | – | C=CCNc1nc(C)nc(N(CC)c2ccc(C(C)C)cc2Br)n1 |
| 7 nM | – | CCCN(CCC#N)c1nc(C)nc(N(CC)c2ccc(N(C)C)cc2C)n1 |
| 10 nM | – | CCN(CC)c1nc(C)nc(N(CC)c2c(Br)cc(OC)cc2OC)n1 |
| 24 nM | – | CCN(CC)c1cc(C)nc(N(CC)c2ccc(S(C)(=O)=O)cc2Br)n1 |
| 5 nM | – | CCN(CC)c1cc(C)nc(N(CC)c2ccc(C(C)=O)cc2Br)n1 |
| 24 nM | – | CCN(CC)c1cc(C)nc(N(CC)c2ccc(SC)cc2Br)n1 |
| – | 3650 | Cc1cc(C)nc(N(C)c2ccccc2I)n1 |
| 2 nM | – | CCC(CC)c1cc(C)nc(N(CC)c2ccc(C(C)C)cc2Br)n1 |
| 5 nM | – | CCCN(CC1CC1)c1nc(C)nc(N(CC)c2ccc(N(C)C)cc2C(F)(F)F)n1 |
| 11 nM | – | CCCN(CCOC)c1cc(C)nc(N(CC)c2ccc(C(C)C)cc2Br)n1 |
| 4 nM | – | C=CCN(CC=C)c1nc(C)nc(N(CC)c2ccc(OC(F)(F)F)cc2Br)n1 |
| 31 nM | – | CCN(CCOC)c1nc(C)nc(N(CC)c2c(C)cc(C)cc2C)n1 |
| 22 nM | – | CCN(CCOC)c1cc(C)nc(N(CC)c2ccc(C(C)C)cc2Br)n1 |
| 44 nM | – | CCC(CC)CNc1cc(C)nc(N(CC)c2ccc(C(C)C)cc2Br)n1 |
| 17 nM | – | CCN(CC)c1nc(C)nc(N(CC)c2ccc(C(C)=O)cc2Br)n1 |

| Compound | Ki [1] | Ki [2] [nM] |
| --- | --- | --- |
| CCN(c1ccc(C(C)C)cc1)c1nc(C)cc(C)n1 | > 1000 nM | – |
